Test system: SARS-CoV-2
Assay: microbe, parasite or virus in culture
Settings: Severe acute respiratory syndrome coronavirus 2, Vero C1008, 48 h

SMILES	IC50 [µM]	IC50 (read-out: pIC50 (converted)) [µM]
C=C1CC[C@H]2[C@@H](/C=C(/C)C(=O)[C@@]3(OC(C)=O)C[C@H](C)[C@H](OC(=O)c4ccccc4)[C@@H]3[C@H]1OC(C)=O)C2(C)C	> 20	> 20
Oc1ccc(C(O)C2CCCCN2)cc1O (centres undefined) [RIMITEROL]	> 20	> 20
CN(C)CCC(c1ccc(Cl)cc1)c1ccccn1 (centres undefined) [CHLORPHENIRAMINE]	> 20	> 20
c1ccc(Cn2cc(CCc3ccncc3)c3ccccc32)cc1 [BENZINDOPYRINE]	> 20	> 20
CC(N)C(=O)OC(C)(C)Cc1ccc(Cl)cc1 (centres undefined) [ALAPROCLATE]	> 20	> 20
CS(=O)(=O)Nc1ccc2c(c1)S(=O)(=O)N=C(C1=C(O)C3C4CCC(C4)C3N(Cc3ccc(F)cc3)C1=O)N2 (centres undefined)	> 20	> 20
CC(C)[C@@H](N)C(=O)O	> 20	> 20
Clc1ccc(Nc2nnc(Cc3ccncc3)c3ccccc23)cc1 [VATALANIB]	> 20	> 20
CC(C)=CCC/C(C)=C/CC/C(C)=C/CC/C(C)=C/CC1=C(C)C(=O)c2ccccc2C1=O [MENATETRENONE]	> 20	> 20
O=C(O)c1cc(/N=N/c2ccc(O)c(C(=O)O)c2)ccc1O [OLSALAZINE]	> 20	> 20
CN(C)CCC=C1c2ccccc2C=Cc2ccccc21 [CYCLOBENZAPRINE]	> 20	> 20
C[C@H]1C(O)O[C@@H]2O[C@@]3(C)CC[C@H]4[C@H](C)CCC1[C@@]24OO3 (some centres undefined)	> 20	> 20
OC[C@H]1O[C@@H]2O[C@H]3[C@H](O)[C@@H](O)[C@@H](O[C@H]4[C@H](O)[C@@H](O)[C@@H](O[C@H]5[C@H](O)[C@@H](O)[C@@H](O[C@H]6[C@H](O)[C@@H](O)[C@@H](O[C@H]7[C@H](O)[C@@H](O)[C@@H](O[C@H]1[C@H](O)[C@H]2O)O[C@@H]7CO)O[C@@H]6CO)O[C@@H]5CO)O[C@@H]4CO)O[C@@H]3CO [ALFADEX]	> 20	> 20
CCC(C)SSc1ncc[nH]1 (centres undefined) [PX-12]	> 20	> 20
COCC1CN=C(c2ccccc2Cl)c2cc(Br)ccc2N1C (centres undefined) [METACLAZEPAM]	> 20	> 20
CN1CCN2c3ncccc3Cc3ccccc3C2C1 (centres undefined) [MIRTAZAPINE]	> 20	> 20
CCN(CC)CCOc1ccc2c(c1)C(=O)c1cc(OCCN(CC)CC)ccc1-2 [TILORONE]	> 20	> 20
NS(=O)(=O)c1cc2c(cc1C(F)(F)F)NC(Cc1ccccc1)NS2(=O)=O (centres undefined) [BENDROFLUMETHIAZIDE]	> 20	> 20
N#CCC1(n2cc(-c3ncnc4[nH]ccc34)cn2)CN(C2CCN(C(=O)c3ccnc(C(F)(F)F)c3F)CC2)C1 [ITACITINIB]	> 20	> 20
CCCOc1ccc(C(=O)OCCN(CC)CC)cc1N [PROPARACAINE]	> 20	> 20
NC(=O)Nc1ccc(S(=O)(=O)c2ccc(N)cc2)cc1 [AMIDAPSONE]	> 20	> 20
O=C(O)C1(c2ccc3c(c2)OC[C@H](Cc2ccc(-c4ccccc4)cc2)[C@H]3O)CCCC1	> 20	> 20
COc1ccc(F)cc1[C@H](C)NC(=O)Cc1ccc(S(=O)(=O)Nc2ncc(CC(C)C)cn2)cc1 [GLIFLUMIDE]	> 20	> 20

SMILES	IC50 [µM]	IC50 (read-out: pIC50 (converted)) [µM]
C[C@@H]1CCO[C@H]2Cn3cc(C(=O)NCc4ccc(F)cc4F)c(=O)c(O)c3C(=O)N12 [DOLUTEGRAVIR]	> 20	> 20
C[C@@H]1C[C@H]2[C@@H]3C[C@H](F)C4=CC(=O)C=C[C@]4(C)[C@@]3(F)[C@@H](O)C[C@]2(C)[C@@]1(O)C(=O)CO [FLUMETHASONE]	> 20	> 20
NCC(CC(=O)O)c1ccccc1 (centres undefined) [PHENIBUT]	> 20	> 20
CCCC[N+]1(C)[C@@H]2C[C@@H](OC(=O)[C@H](CO)c3ccccc3)C[C@H]1[C@@H]1O[C@@H]12 (some centres undefined) [BUTYLSCOPOLAMINE]	> 20	> 20
Clc1ccc(CCC(Cn2ccnc2)Sc2c(Cl)cccc2Cl)cc1 (centres undefined) [BUTOCONAZOLE]	> 20	> 20
OCC1OC(Oc2ccc(O)cc2)C(O)C(O)C1O (centres undefined)	> 20	> 20
CCCCOc1nc(N)c2c(n1)N(Cc1cccc(CN3CCCC3)c1)CC(=O)N2 [VESATOLIMOD]	> 20	> 20
c1cnc2cc3c(cc2n1)[C@@H]1CNC[C@H]3C1 [VARENICLINE]	> 20	> 20
O=C(O)c1cc(=O)c2ccccc2[nH]1 [TRANSTORINE]	> 20	> 20
CC(C)c1noc(N2CCC(COc3ccc(-c4ccc(S(C)(=O)=O)cc4)nc3)CC2)n1 [GSK-1292263]	> 20	> 20
Cc1ccc2c(Cl)cc(Cl)c(O)c2n1 [CHLORQUINALDOL]	> 20	> 20
CCn1c(=O)c2c(nc(/C=C/c3ccc(OC)c(OC)c3)n2C)n(CC)c1=O [ISTRADEFYLLINE]	> 20	> 20
CNc1ncnc2c1ncn2[C@@H]1O[C@H](CO)[C@@H](O)[C@H]1O	> 20	> 20
COc1ccc(N(C)c2nc(C)nc3ccccc23)cc1 [VERUBULIN]	> 20	> 20
c1cc2c(cc1[C@H]1OC[C@H]3[C@@H]1CO[C@H]3c1ccc3c(c1)OCO3)OCO2 [ASARININ]	> 20	> 20
CC(C)=CCC/C(C)=C/CC/C(C)=C/CN1CCN(Cc2ccc3c(c2)OCO3)CC1 [PIFARNINE]	> 20	> 20
CC(=O)OC1CCC2(C)C3CC(=O)C4(C)C(CC5O[C@]6(CCC(C)CO6)C(C)C54)C3CC[C@H]2C1 (some centres undefined)	> 20	> 20
O=C(c1ccccc1)C(O)c1ccccc1 (centres undefined) [BENZOIN]	> 20	> 20
O=C(O)C(O)C(O)C(O)C(O)C(O)CO (centres undefined)	> 20	> 20
CCN(CC)C(=O)N1CCN(C)CC1 [DIETHYLCARBAMAZINE]	> 20	> 20
C[C@@H]1O[C@@H](O[C@H]2[C@H](Oc3cc(O)c4c(c3)O[C@H](c3ccc(O)cc3)CC4=O)O[C@H](CO)[C@@H](O)[C@@H]2O)[C@H](O)[C@H](O)[C@H]1O [NARINGIN]	> 20	> 20
CC1(C)O[C@@H]2C[C@H]3[C@@H]4C[C@H](F)C5=CC(=O)CC[C@]5(C)[C@H]4[C@@H](O)C[C@]3(C)[C@]2(C(=O)CO)O1 [FLURANDRENOLIDE]	> 20	> 20
Cc1cccc(Cl)c1C(=O)N[C@@H](Cc1ccc(NC(=O)c2c(Cl)cccc2Cl)cc1)C(=O)O	> 20	> 20

SMILES	IC50 [µM]	IC50 (read-out: pIC50 (converted)) [µM]
CC(=O)N[C@H]1[C@H](O[C@@H]2c3ccc(c(Cl)c3)Oc3cc4cc(c3O[C@@H]3O[C@H](CO)[C@@H](O)[C@H](O)[C@H]3NC(=O)CCCCCCC(C)C)Oc3ccc(cc3Cl)C[C@H]3NC(=O)[C@@H](N)c5ccc(O)c(c5)Oc5cc(O)cc(c5)[C@H](NC3=O)C(=O)N[C@H]4C(=O)N[C@H]3C(=O)N[C@@H]2C(=O)N[C@@H](C(=O)O)c2cc(O)cc(O[C@H]4O[C@H](CO)[C@@H](O)[C@H](O)[C@@H]4O)c2-c2cc3ccc2O)O[C@H](CO)[C@@H](O)[C@@H]1O	> 20	> 20
O=C(O)CCCCCc1cccc2cncn12	> 20	> 20
CC(NCCC(c1ccccc1)c1ccccc1)c1ccccc1 (centres undefined) [FENDILINE]	> 20	> 20
N[C@H]1CONC1=O [LEVCYCLOSERINE]	> 20	> 20
CC12CCC(=O)C=C1CCC1C2C(O)CC2(C)C1CCC2(O)C(=O)COP(=O)(O)O (centres undefined)	> 20	> 20
CCCCCCOc1nsnc1C1=CCCN(C)C1 [XANOMELINE]	> 20	> 20
Cc1c(Cl)cccc1Nc1ncccc1C(=O)O [CLONIXIN]	> 20	> 20
C=C(C)C1CC=C(CO)CC1 (centres undefined)	> 20	> 20
Cc1cc(-c2nc(CN3CCNCC3)no2)cc2c1C(=O)N(Cc1ccc(OC(F)(F)F)cc1)C2	> 20	> 20
CO/N=C(\C(=O)N[C@@H]1C(=O)N2C(C(=O)O)=C(COC(C)=O)CS[C@H]12)c1csc(N)n1 [CEFOTAXIME]	> 20	> 20
CCCC(=O)c1ccc2c(c1)N(CCCN1CCN(C)CC1)c1ccccc1S2 [BUTAPERAZINE]	> 20	> 20
CCn1cc(C(=O)O)c(=O)c2cc3c(cc21)OCO3 [OXOLINIC ACID]	> 20	> 20
COP(=O)(OC)C(O)C(Cl)(Cl)Cl (centres undefined) [TRICHLORFON]	> 20	> 20
CCN(CC)CCNC(C(=O)OCCC(C)C)c1ccccc1 (centres undefined) [CAMYLOFIN]	> 20	> 20
CNC(=O)CCN1CCN(CCC=C2c3ccccc3Sc3ccc(Cl)cc32)CC1	> 20	> 20
C=C[C@@]1(C)CC(=O)[C@@]2(O)[C@](C)(O1)[C@@H](OC(C)=O)[C@@H](OC(=O)CCN(C)C)C1C(C)(C)CC[C@H](O)[C@@]12C (some centres undefined)	> 20	> 20
O=c1oc2cc(O)ccc2c2ccc(O)cc12	> 20	> 20
O=C(O)CC(O)C(=O)O (centres undefined) [MALIC ACID]	> 20	> 20
CC(=O)[C@H]1CC[C@H]2[C@@H]3CCC4C[C@@H](O)CC[C@]4(C)[C@H]3CC[C@]12C (some centres undefined)	> 20	> 20
O=C(O)c1cc(/N=N/c2ccc(S(=O)(=O)Nc3ccccn3)cc2)ccc1O [SULFASALAZINE]	> 20	> 20
[O-][N+]1=C(c2ccccc2)c2cc(Cl)ccc2N=C(NCC2CC2)C1 [CYPRAZEPAM]	> 20	> 20
